Where two headings read alike, the source gives them in different places.
Key:
CRBN/DDB1 = CRBN/DDB1 (Homo sapiens (Human), UniProt Q96SW2); type: binding; details: His tagged CRBN+DDB1, Cy5-labeled Thalidomide probe, one hour; read-out: CRBN HTRF IC50
Procedure: The binding potency was determined using HTRF assay technology (Perkin Elmer). Compounds were serially diluted in DMSO and […] volume was transferred to white 384-well plate.

ERα_LBD (GST) = ERα_LBD (GST) (Homo sapiens (Human), UniProt P03372); test: IC50 measurements for binding to ERα_LBD (GST), LanthaScreen TR-FRET competitive binding; details: ERα_LBD (GST) 4 nM, Fluormone ES2 Green tracer, 60 min; read-out: ERα HTRF IC50
ERα_LBD (GST), sequence (P03372 311-547): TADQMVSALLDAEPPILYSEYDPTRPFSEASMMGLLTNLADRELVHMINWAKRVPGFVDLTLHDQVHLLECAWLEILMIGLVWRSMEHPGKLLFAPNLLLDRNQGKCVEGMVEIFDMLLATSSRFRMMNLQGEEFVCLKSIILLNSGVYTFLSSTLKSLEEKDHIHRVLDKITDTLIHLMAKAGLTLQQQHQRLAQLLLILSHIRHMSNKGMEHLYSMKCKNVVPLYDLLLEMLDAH
Procedure: In vitro Assay: IC50 Measurements for binding to ERα_LBD (GST) • Final assay conditions: • 1. ERα_LBD (GST) protein: 4 nM • 2. Tb Anti-GST: 2 nM • 3. Fluormone ES2 Green tracer: 3 nM • 4. Incubation time: 60 min • 5. DMSO: 1% • 6. Assay buffer: Adding 1M DTT to Nuclear receptor Buffer K for final 5 mM DTT. • 7. ZPE: 1% DMSO • 8. HPE: 1 μM ARV_471 (positive control) • 9. LanthaScreen® TR-FRET ERα Competitive Binding Assay (ThermoFisher, #A^15887) • 100× Compound preparation
1) Cherry pick 2 μL 10 mM compound stock to column 1 of a 384 intermediate plate. • 2) Add 18 μL DMSO to column 1 to dilute compound to 1 mM. • 3) Transfer 10 μL 1 mM compound to column 1 of a LDV plate. • 2) Add 6 μl DMSO to column 2-10 of the LDV plate. • 3) Compounds undergo 3-fold serial dilution (3 μL+6 μL) in DMSO. • 4) Transfer 120 nL compound solution to assay plate. ZPE: 120 nL 100% DMSO • Procedure:
Complete nuclear receptor buffer K was prepared by adding 1 M DTT to nuclear receptor buffer K for a final concentration of 5 mM DTT. Complete nuclear receptor buffer K must be prepared fresh daily, 2X protein solution was prepared using complete nuclear receptor buffer K containing 8 nM ERα_LBD (GST) and 4 nM Tb Anti-GST. Then, 2X Fluormone ES2 Green tracer (6 nM) was prepared using complete nuclear receptor buffer K. Add 6 μL 2X Fluormone ES2 green tracer into a compound plate (PerkinElmer 6008289) by dragonfly with one-tips-addition. Subsequently, 6 μL 2× protein solution was added into the plate. The 384-well plate was mixed on a plate shaker and incubated at room temperature protected from light for 60 min. The plate was scaled with a cover to minimize evaporation. The plate was read at wavelengths of 520 nm and 495 nm. The TR-FRET ratio was calculated by dividing the emission signal at 520 nm by the emission signal at 495 nm. A binding curve was generated by plotting the emission ratio vs, the log [ligand]. To determine the IC50 value, fit the data using XL-fit for a sigmoidal dose-response.

ER in MCF-7 cells = ER in MCF-7 cells (Homo sapiens (Human), UniProt P03372); test: In-cell Western (ICW) ER degradation assay in MCF-7 cells; type: cell-based; details: for DC50: MCF-7, ER degradation, read-out: MCF7 DC50
ER in MCF-7 cells, sequence (P03372 whole entry): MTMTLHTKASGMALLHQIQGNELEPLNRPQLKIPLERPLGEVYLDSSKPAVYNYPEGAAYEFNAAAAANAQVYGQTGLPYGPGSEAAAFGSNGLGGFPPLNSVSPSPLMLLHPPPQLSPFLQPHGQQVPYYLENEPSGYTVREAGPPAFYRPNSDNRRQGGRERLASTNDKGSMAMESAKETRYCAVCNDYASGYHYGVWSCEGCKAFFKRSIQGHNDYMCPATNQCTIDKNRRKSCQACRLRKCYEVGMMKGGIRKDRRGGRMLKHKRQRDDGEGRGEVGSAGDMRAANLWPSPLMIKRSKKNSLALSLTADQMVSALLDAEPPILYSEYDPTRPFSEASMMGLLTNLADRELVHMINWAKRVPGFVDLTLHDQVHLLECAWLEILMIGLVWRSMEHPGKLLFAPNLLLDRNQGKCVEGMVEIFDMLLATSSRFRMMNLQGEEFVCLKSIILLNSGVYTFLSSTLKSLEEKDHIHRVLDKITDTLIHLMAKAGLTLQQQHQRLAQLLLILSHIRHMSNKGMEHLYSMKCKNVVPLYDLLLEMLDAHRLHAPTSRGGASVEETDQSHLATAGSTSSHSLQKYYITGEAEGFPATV

ER in T47D cells = ER in T47D cells (Homo sapiens (Human), UniProt P03372); test: In-cell Western (ICW) ER degradation assay in T47D cells; type: cell-based; details: 16 hrs treatment; for DC50: ER degradation; for Dmax: maximal ER degradation, read-out: T47D Dmax
ER in T47D cells, sequence (P03372 whole entry): as above

[1] = MCF7, MCF-7, maximal ER degradation, 16 hrs treatment, read-out: MCF7 Dmax
[2] = MCF7, read-out: MCF7 Dmax, MCF-7, maximal ER degradation, 16 hrs treatment

CRBN/DDB1, sequence (Q96SW2 whole entry, species assumed): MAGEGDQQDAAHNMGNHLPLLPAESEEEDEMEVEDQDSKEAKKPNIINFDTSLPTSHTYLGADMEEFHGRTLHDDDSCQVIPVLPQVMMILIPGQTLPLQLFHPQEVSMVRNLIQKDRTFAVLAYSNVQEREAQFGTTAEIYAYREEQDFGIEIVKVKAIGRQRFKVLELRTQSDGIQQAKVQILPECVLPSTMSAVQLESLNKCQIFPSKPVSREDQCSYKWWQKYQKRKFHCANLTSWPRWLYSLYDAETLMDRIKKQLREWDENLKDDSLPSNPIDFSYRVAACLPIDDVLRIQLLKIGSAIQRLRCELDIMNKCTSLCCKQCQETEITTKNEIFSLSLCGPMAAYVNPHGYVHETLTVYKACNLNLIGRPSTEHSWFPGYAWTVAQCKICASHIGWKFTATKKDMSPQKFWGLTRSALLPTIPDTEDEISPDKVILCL
CRBN/DDB1, sequence (Q16531 whole entry partner, species assumed): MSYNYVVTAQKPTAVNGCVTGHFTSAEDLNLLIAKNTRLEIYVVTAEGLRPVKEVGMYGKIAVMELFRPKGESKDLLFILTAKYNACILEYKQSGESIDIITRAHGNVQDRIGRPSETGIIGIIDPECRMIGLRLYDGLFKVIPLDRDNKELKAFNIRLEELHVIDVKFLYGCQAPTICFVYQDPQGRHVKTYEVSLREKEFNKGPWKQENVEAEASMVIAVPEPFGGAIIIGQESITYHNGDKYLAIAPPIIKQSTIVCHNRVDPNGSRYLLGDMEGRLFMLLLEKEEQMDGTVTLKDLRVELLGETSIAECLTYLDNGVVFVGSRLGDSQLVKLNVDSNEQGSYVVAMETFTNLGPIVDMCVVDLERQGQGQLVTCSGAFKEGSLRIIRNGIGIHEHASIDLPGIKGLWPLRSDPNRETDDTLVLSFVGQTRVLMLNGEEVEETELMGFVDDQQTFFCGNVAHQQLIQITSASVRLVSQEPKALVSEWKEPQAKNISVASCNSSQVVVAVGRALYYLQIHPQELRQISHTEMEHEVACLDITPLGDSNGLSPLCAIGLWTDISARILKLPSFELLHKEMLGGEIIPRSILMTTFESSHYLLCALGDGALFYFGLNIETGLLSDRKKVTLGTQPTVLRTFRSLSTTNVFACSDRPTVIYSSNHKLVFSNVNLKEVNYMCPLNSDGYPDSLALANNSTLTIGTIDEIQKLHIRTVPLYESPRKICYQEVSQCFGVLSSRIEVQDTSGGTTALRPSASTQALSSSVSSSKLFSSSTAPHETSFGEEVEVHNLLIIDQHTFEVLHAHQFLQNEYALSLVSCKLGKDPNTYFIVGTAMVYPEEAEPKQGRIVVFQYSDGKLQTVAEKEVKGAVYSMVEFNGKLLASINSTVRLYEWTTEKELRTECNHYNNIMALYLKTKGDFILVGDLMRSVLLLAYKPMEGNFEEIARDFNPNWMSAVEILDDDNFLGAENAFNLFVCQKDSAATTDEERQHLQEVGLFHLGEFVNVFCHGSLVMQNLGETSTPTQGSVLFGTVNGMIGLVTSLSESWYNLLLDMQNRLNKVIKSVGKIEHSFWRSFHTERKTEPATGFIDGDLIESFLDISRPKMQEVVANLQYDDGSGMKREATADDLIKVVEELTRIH

| SMILES | IC50 (CRBN/DDB1) | IC50 (ERα_LBD (GST)) | Dmax (ER in MCF-7 cells; [1]) | DC50 (ER in MCF-7 cells; 16 hrs treatment) | DC50 (ER in T47D cells) | Dmax (ER in T47D cells) | Dmax (ER in MCF-7 cells; [2]) |
| --- | --- | --- | --- | --- | --- | --- | --- |
| O=C1CC[C@H](NC(=O)c2ccc3c(n2)OC[C@H]2CN(CC4CCN(c5ccc([C@@H]6c7ccc(O)cc7CC[C@@H]6c6ccccc6)cc5)CC4)CCN32)C(=O)N1 (single isomer, unassigned) [Compound A6] | 500 to 5000 nM | < 10 nM | 50 to 75% | < 1 nM | < 1 nM | 50 to 75% |  |
| COc1cc(N2CCC3(CC2)CC(CN2CCN4c5ccc6c(c5OC[C@H]4C2)CN([C@H]2CCC(=O)NC2=O)C6=O)C3)ccc1[C@H]1c2ccc(O)cc2CC[C@H]1c1ccccc1 (single isomer, unassigned) [Compound A9] | < 50 nM | 10 to 100 nM | 50 to 75% | 1 to 10 nM | 1 to 10 nM | 50 to 75% |  |
| COc1cc(N2CCC3(CC2)CC(CN2CCN4c5cc6c(cc5OC[C@@H]4C2)C(=O)N([C@H]2CCC(=O)NC2=O)C6)C3)ccc1[C@H]1c2ccc(O)cc2CC[C@H]1c1ccccc1 (single isomer, unassigned) [Compound A11] | 50 to 500 nM | 10 to 100 nM | 50 to 75% | 10 to 100 nM | 1 to 10 nM | 50 to 75% |  |
| O=C1CC[C@H](N2Cc3cc4c(cc3C2=O)OC[C@H]2CN(C[C@@H]3COC5(CCN(c6ccc([C@@H]7c8ccc(O)cc8CC[C@@H]7c7ccccc7)cc6)CC5)C3)CCN42)C(=O)N1 (single isomer, unassigned) [Compound A18] | 500 to 5000 nM | > 100 nM | 50 to 75% | < 1 nM | < 1 nM | 50 to 75% |  |
| O=C1CC[C@H](N2Cc3c(ccc4c3OC[C@H]3CN(C[C@@H]5COC6(C5)CN(c5ccc([C@@H]7c8ccc(O)cc8CC[C@@H]7c7ccccc7)cc5)C6)CCN43)C2=O)C(=O)N1 (single isomer, unassigned) [Compound A69] | 50 to 500 nM | < 10 nM | 50 to 75% | < 1 nM | < 1 nM | > 75% |  |
| O=C1CCC(NC(=O)c2ccc3c(n2)OC[C@H]2CN(CC4CCN(c5ccc([C@@H]6c7ccc(O)cc7CC[C@@H]6c6ccccc6)cc5)CC4)CCN32)C(=O)N1 (stereo partly drawn) [Compound A2, (4aR)-N-(2,6-dioxopiperidin-3-yl)-3-((1-(4-((1R,2S)-6-hydroxy-2-phenyl-1,2,3,4-tetrahydronaphthalen-1-yl)-phenyl)piperidin-4-yl)meth-yl)-1,2,3,4,4a,5-hexahydro-pyrazino[1,2-d]pyrido[2,3-b] [1,4]oxazine-8-carboxamide] | 500 to 5000 nM | < 10 nM | > 75% | < 1 nM | < 1 nM | > 75% |  |
| O=C1CC[C@H](N2Cc3c(ccc4c3OCC43CCN(CC4CCC5(CC4)CN(c4ccc([C@@H]6c7ccc(O)cc7CC[C@@H]6c6ccccc6)cn4)C5)CC3)C2=O)C(=O)N1 [Compound A131, (S)-3-(1′-((2-(5-((1S,2S)-6-hydroxy-2-phenyl-1,2,3,4-tetrahydronaphthalen-1-yl)pyridin-2-yl)-2-azaspiro[3.5]nonan-7-yl)methyl)-6-oxo-6,8-dihydro-2H,7H-spiro[furo[2,3-e]isoindole-3,4′-piperidin]-7-yl)piperidine-2,6-dione] | < 50 nM | < 10 nM |  | < 1 nM |  |  | > 75% |
| O=C1CC[C@H](N2Cc3c(ccc4c3OCC43CCN(CC4CCC5(CC4)CN(c4ccc([C@@H]6c7ccc(O)cc7CC[C@@H]6c6ccccc6)cc4F)C5)CC3)C2=O)C(=O)N1 [Compound A161, (S)-3-(1′-((2-(2-fluoro-4-((1R, 2S)-6-hydroxy-2-phenyl-1,2,3,4-tetrahydronaphthalen-1-yl)phenyl)-2-azaspiro[3.5]nonan-7-yl)methyl)-6-oxo-6,8-dihydro-2H,7H-spiro[furo[2,3-e]isoindole-3,4′-piperidin]-7-yl)piperidine-2,6-dione] | < 50 nM | < 10 nM |  | < 1 nM |  |  | 50 to 75% |

Reference: US20260028354A1, “TETRAHYDRONAPHTHALENE DERIVATIVES AS ESTROGEN RECEPTOR DEGRADERS” (REGENT OF THE UNIVERSITY OF MICHIGAN, priority 2022, published 2026)
